From patent US11179348B2, “Combination comprising pterostilbene for the treatment of cancer” (FUNDACIÓN UNIVERSIDAD CATÓLICA DE VALENCIA SAN VICENTE …, priority 2015, dated 2021)

What was measured:
Type in all cases: cell-based, human
[1] = system: ASPC-1 cells; assay: Effect of Pter on ASPC-1 cell growth or viability in vitro; conditions: 15 μM Pter×60 min every 24 h
Protocol: (§1) FIG. 11. In vivo effect of Pter on human pancreatic cancer growth. […] For the doses of 20 and 40 mg Pter/kg only the point at the end of the treatment period is shown.
(§2) Human A2058, MeWo and MelJuso melanoma cells, and mouse AtT-20 pituitary corticotroph tumor cells were from the American Type Culture Collection (ATCC). Human HEMa-LP epidermal melanocytes were from Life Technologies (Grand Island, N.Y.). Human MDA-MB-231 (triple negative: ER−, PR−, HER2−) and MCF-7 (ER+, PR+, HER2−) breast adenocarcinoma, A549 lung adenocarcinoma (NSCLC), HepG2 hepatocellular carcinoma, LNCaP (AR+) and PC-3 (AR−) prostate adenocarcinoma, SK-OV-3 epithelial ovarian carcinoma, and HT-29 and Caco-2 colorectal carcinoma cells were from the American Type Culture Collection. Cells were grown in Dulbecco's modified Eagle's medium (DMEM) (Invitrogen, San Diego, Calif.), pH 7.4, supplemented with 10% heat-inactivated FCS (Biochrom KG, Berlin, Germany), 100 units/ml penicillin and 100 μg/ml streptomycin. Cells were plated, at a density of 20,000 cells/cm2, and cultured at 37° C. in a humidified atmosphere with 5% CO2. […] Cell numbers were determined using a Coulter Counter (Coulter Electronic Inc., Miami, Fla.). […] Cellular viability was assessed as previously reported (Mena, S. et al. Clin Cancer Res 13, 2658-2666 (2007)), by measuring trypan blue exclusion and leakage of lactate dehydrogenase activity.

[2] = system: BxPC-3 cells; assay: Effect of Pter on BxPC-3 cell growth or viability in vitro; conditions: 15 μM Pter×60 min every 24 h
Protocol: as §1, §2

[3] = system: A549 cells isolated from tumor-bearing mice; assay: Chemosensitization of cultured A549 cells isolated from xenografts; conditions: 72 h-cultured, PL 0.5 μM, Chemo 1 μM VRB and 15 μM cisPt, Pter = in vivo pretreatment
Protocol: FIGS. 18-25. Effect of piperlongumine and I-BET762, as GSH depleting and chemosensitizing agents, in in vitro growing human melanoma, pancreatic, breast, lung, liver, prostate, ovarian, and colorectal cancer cells. Cancer cells, isolated from Pter-treated tumor-bearing mice, were cultured as indicated under Methods. Chemotherapy (0.25 μM PAC.PBP in A2058 melanoma and MDA-MB-231 breast carcinoma cells; 0.125 μM PAC.PBP and 25 μM GTB in AsPC-1 pancreatic cancer cells; 1 μM VRB and 15 μM cisPt in A459 lung carcinoma cells; 0.15 μM DXR in HepG2 hepatocellular carcinoma cells; 15 nM DCT in PC-3 prostate carcinoma cells; 0.15 μM PAC.PBP and 25 μM CarboPt in SK-OV-3 ovarian carcinoma cells; 3 μM 5-FU, 1 μM FA and 0.6 μM IRI in HT-29 colorectal carcinoma cells) was added to the cultured flasks 24 h after seeding. […]
Human A2058, MeWo and MelJuso melanoma cells, and mouse AtT-20 pituitary corticotroph tumor cells were from the American Type Culture Collection (ATCC). […] Cell numbers were determined using a Coulter Counter (Coulter Electronic Inc., Miami, Fla.). […] Cellular viability was assessed as previously reported (Mena, S. et al. Clin Cancer Res 13, 2658-2666 (2007)), by measuring trypan blue exclusion and leakage of lactate dehydrogenase activity. […]

Question: How did the “cell growth or viability in vitro” value [1] turn out when `COc1cc(/C=C/c2ccc(O)cc2)cc(OC)c1` [Pter, trans-3,5-dimethoxy-4′-hydroxystilbene] was run?
Answer: Its value is “did not affect”.

Question: What about the “cell growth or viability in vitro” value [2] of the same compound?
Answer: The value was “did not affect”.

Question: And the Viable cells [3]?
Answer: Its Viable cells is 1317 ± 255 ×10^6.
